Experimental data published in publication doi:10.1101/704536v1 (biorxiv, 2019).

Tests used:
repeat Tau (K18) [1] = target: T1, repeat Tau (K18) (Homo sapiens, UniProt P10636); test: UV-visible absorbance titration at […] nm; format: binding
repeat Tau (K18) [2] = target: T1, repeat Tau (K18); test: ThS fluorescence, inhibition of heparin-induced aggregation; format: biochemical

T1 sequence (P10636 561-689 limits assumed): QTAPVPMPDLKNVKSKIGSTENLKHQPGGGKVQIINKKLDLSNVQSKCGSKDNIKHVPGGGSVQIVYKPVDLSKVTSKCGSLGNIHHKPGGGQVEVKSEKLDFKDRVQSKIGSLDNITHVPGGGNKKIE

For `O=c1cc(-c2ccccc2)oc2cc(O)c(O)c(O)c12` [Baicalein], the Kd (repeat Tau (K18) [1]) was 3.5 µM and the IC50 (repeat Tau (K18) [2]) was 35.8 µM.
